Data on five molecules can be found in patent US20200079801A1, “TRISUBSTITUTEDSILYLBENZYLBENZIMIDAZOLES AND ANALOGUES” (Bayer Aktiengesellschaft, priority 2017, published 2020).

For data set [1] the following is noted: for logP: HPLC, C 18 reversed phase, 40° C., 0.1% aqueous formic acid and acetonitrile, gradient 10% to 95% acetonitrile.
Experimental: temperature: 40° C.; mobile phases: 0.1% aqueous formic acid and acetonitrile; linear gradient from 10% acetonitrile to 95% acetonitrile;
Calibration was carried out using unbranched alkan-2-ones (comprising 3 to 16 carbon atoms) with known logP values (determination of the logP values by the retention times using linear interpolation between two successive alkanones). lambda-max-values were determined using UV-spectra from 200 nm to 400 nm and the peak values of the chromatographic signals.
For another data set, the system named is Pyricularia oryzae. The experiment in a line: microbe, parasite or virus in culture. The class given is cell-based. To be noted: 120 h, read-out: efficacy (inhibition of fungal growth).
Another data set relates to Alternaria alternate. Put plainly: In vitro cell test on Alternaria alternate. The class given is cell-based. Conditions: 120 h, 20 ppm of active ingredient, 5 days incubation, spectrometric measurement of mycelium growth, read-out: efficacy (inhibition of fungal growth). As to the method: Example B: In Vitro Cell Test on Alternaria alternate Solvent: dimethyl sulfoxide Culture medium: 14.6 g anhydrous D-glucose (VWR), 7.1 g mycological peptone (Oxoid), 1.4 g granulated yeast extract (Merck), […] Inoculum: spore suspension The tested compounds were solubilized in dimethyl sulfoxide and the solution used to prepare the required range of concentrations. […] A spore suspension of Alternaria alternate was prepared and diluted to the desired spore density. Compounds were evaluated for their ability to inhibit spore germination and mycelium growth in liquid culture assay. The compounds were added in the desired concentration to the culture medium with spores. After 5 days incubation, fungi-toxicity of compounds was determined by spectrometric measurement of mycelium growth. Inhibition of fungal growth was determined by comparing the absorbance values in wells containing the compounds with the absorbance in control wells without fungicides.

In data set [2] the test system is Colletotrichum lindemuthianum. The experiment in a line: In vitro cell test on Colletotrichum lindemuthianum. The class given is cell-based. Conditions: 144 h, 20 ppm of active ingredient, 6 days incubation, spectrometric measurement of mycelium growth, read-out: efficacy (inhibition of fungal growth). As to the method: Example C: In Vitro Cell Test on Colletotrichum lindemuthianum Solvent: dimethyl sulfoxide Culture medium: 14.6 g anhydrous D-glucose (VWR), 7.1 g mycological peptone (Oxoid), 1.4 g granulated yeast extract (Merck), QSP 1 liter Inoculum: spore suspension The tested compounds were solubilized in dimethyl sulfoxide and the solution used to prepare the required range of concentrations. […] A spore suspension of Colletotrichum lindemuthianum was prepared and diluted to the desired spore density. Compounds were evaluated for their ability to inhibit spores germination and mycelium growth in liquid culture assay. The compounds were added in the desired concentration to the culture medium with spores. After 6 days incubation, fungi-toxicity of compounds was determined by spectrometric measurement of mycelium growth. Inhibition of fungal growth was determined by comparing the absorbance values in wells containing the compounds with the absorbance in control wells without fungicides.

On to `C[Si](C)(c1ccc(-c2ccccc2)cc1)c1ccccc1Cn1cnc2ccccc21` [I.40], for which, in data set [1], the logP is 3.39.

On to `Cc1cc2nc(C)n(Cc3ccccc3[Si](C)(C)c3ccc(-c4ccccc4)cc3)c2cc1C` [I.53], for which the logP in data set [1] worked out at 3.29.

Take `C[Si](C)(c1ccccc1)c1ccccc1Cn1cnc2ccccc21` [I.01, 1-{2-[dimethyl(phenyl)silyl]benzyl}-1H-benzimidazole]: the inhibition at 20 ppm was 90 to 100% in the data set with Pyricularia oryzae, 80 to 89% in the data set with Alternaria alternate and 90 to 100% in data set [2]. Also, the chromatographic logP in data set [1] turned out to be 2.57.

In data set [1], `Cc1cc2ncn(Cc3ccccc3[Si](C)(C)c3ccc(-c4ccccc4)cc3)c2cc1C` [I.48] yielded a logP of 3.33.

Take `Cc1nc2ccccc2n1Cc1ccccc1[Si](C)(C)c1ccc(-c2ccccc2)cc1` [I.46]: the logP in data set [1] worked out at 3.18.

One may read the logP as a log measure of how a compound divides between an organic and an aqueous phase. Read a low logP as a more hydrophilic compound. Broadly, the inhibition is the change of the read-out against control, counted positive when it falls. By chromatographic logP is commonly meant lipophilicity estimated from chromatographic retention. A lower chromatographic logP goes with a more hydrophilic compound.
